Assay results taken from article PMC8413292, “Small-molecule polymerase inhibitor protects non-human primates from measles and reduces shedding” (Nature Communications, 2021).
Several values for one entry are separate records, joined by “and”; a condition that tells them apart may be missing. Equal entries are not always repeated.

Columns and labels:
MeV N gene RNA = assay: Quantitative RT-PCR of MeV N RNA in PBMCs; format: in vivo
Procedure: Organs (21 days post-infection) and PBMCs (twice a week) were frozen in RNAlater (Qiagen) at −80 °C until further processing. For the deceased animal, organs were frozen in RNAlater at the day of death. Lymph nodes were thawed on ice, transferred to TRIzol (ambion life technologies) and homogenized using a tissue homogenizer. Total RNA of lymph nodes and PBMCs was extracted following the TRIzol manufacturer’s protocol. RNA (1000 ng for lymph nodes; 110 ng for PBMCs) was then subjected to reverse transcription using random hexamer primers and Superscript III reverse transcriptase in accordance with the manufacturer’s protocols. Subsequent quantitative PCR (qPCR) was carried out using primer pairs specific for a fragment in the MeV N gene[23] or GAPDH gene(Supplementary Table 2) and the PowerUp SYBR Green Master Mix (Thermo Fisher Scientific) in an Applied Biosystems 7500 Real-Time PCR system. Samples were normalized for GAPDH. The comparative (ΔΔCt) Ct method was applied to determine relative amounts of N-encoding RNA present in samples from treated animals compared to those obtained from untreated control animals (lymph nodes) or compared to those obtained from untreated control animals on day 7 post-infection (peak PBMC virus titer).

[1] = tested on: MV/FrankfurtMain.DEU/17.11 (genotype D8); assay: Throat swab virus titers (shed virus, limited dilution); format: in vivo, squirrel monkeys (Saimiri sciureus)
Procedure: White blood cell counts, viral load quantification in PBMCs, and quantification of neutralizing antibody titers were performed as follows: for white blood cell counts, blood was diluted 1:100 in 3% acetic acid and cells were counted using a Neubauer chamber. For viral load quantification in PBMCs, blood was centrifuged at 3000 rpm for 15 min and serum was frozen at −20 °C until further use. Red blood cell lysis was performed and the remaining PBMCs were counted using a Neubauer chamber. Viral titers in PBMCs were quantified in quadruplicates using limited dilution method and calculated as TCID50/10^6 PBMCs. Neutralizing antibody titers were quantified by incubating MeV with 2-fold serial dilutions of the respective serum for 20 min at room temperature in quadruplicates. Vero/hSLAM cells were added and incubated for 3 days at 37 °C. Neutralizing antibody titers are expressed as the reciprocal of the highest serum dilution showing no signs of infection. For virus titration from throat swabs, swabs were placed in 150 μl DMEM with 3% penicillin/streptomycin and the titer was quantified by limited dilution method.

Compound: Cn1nc(C(F)(F)F)cc1C(=O)Nc1ccc(S(=O)(=O)N2CCCC[C@H]2CCN2CCOCC2)cc1 [ERDRP-0519]
- Supp. Figure 3a, relative MeV N RNA in PBMCs, Mean Diff. (MeV N gene RNA; untreated vs. therapeutic (d3), Day 17): 3.169
- Supp. Figure 3a, relative MeV N RNA in PBMCs, Mean Diff. (MeV N gene RNA; untreated vs. therapeutic (d3), Day 21): 3.351
- Supp. Figure 3a, relative MeV N RNA in PBMCs, Mean Diff. (MeV N gene RNA; untreated vs. therapeutic (d7), Day 0): -2.049
- Supp. Figure 3a, relative MeV N RNA in PBMCs, Mean Diff. (MeV N gene RNA; untreated vs. therapeutic (d7), Day 3): -0.2124
- Supp. Figure 3a, relative MeV N RNA in PBMCs, Mean Diff. (MeV N gene RNA; untreated vs. therapeutic (d7), Day 7): 3.189
- Supp. Figure 3a, relative MeV N RNA in PBMCs, Mean Diff. (MeV N gene RNA; untreated vs. therapeutic (d7), Day 10): 3.285
- Supp. Figure 3a, relative MeV N RNA in PBMCs, Mean Diff. (MeV N gene RNA; untreated vs. therapeutic (d7), Day 14): 0.916
- Supp. Figure 3a, relative MeV N RNA in PBMCs, Mean Diff. (MeV N gene RNA; untreated vs. therapeutic (d7), Day 17): 0.1414
- Supp. Figure 3a, relative MeV N RNA in PBMCs, Mean Diff. (MeV N gene RNA; untreated vs. therapeutic (d7), Day 21): -0.1552
- drop of shed virus titers (throat swab) compared to untreated animals ([1]; day 7 therapeutic group, within 72 h of treatment initiation): dropped significantly (p = 0.0199) by two orders of magnitude
- Swab Titration, group mean (Mean 2) ([1]; prophylactic, Row 1 (0 d)): 0 log10(TCID50/ml)
- Swab Titration, group mean (Mean 2) ([1]; prophylactic, Row 2 (3 d)): 0 log10(TCID50/ml)
- Swab Titration, group mean (Mean 2) ([1]; prophylactic, Row 3 (7 d)): 0 log10(TCID50/ml)
- Swab Titration, group mean (Mean 2) ([1]; prophylactic, Row 4 (10 d)): 0.4498 log10(TCID50/ml)
- Swab Titration, group mean (Mean 2) ([1]; prophylactic, Row 5 (14 d)): 0 log10(TCID50/ml)
- Swab Titration, group mean (Mean 2) ([1]; prophylactic, Row 6 (17 d)): 0.1165 log10(TCID50/ml)
- Viral titers (throat swab), individual animals ([1]; prophylactic, time 10 d): 2.699 log10(TCID50/ml)
- Viral titers (throat swab), individual animals ([1]; prophylactic, time 17 d): 0.699 log10(TCID50/ml)
- Swab Titration, group mean (Mean 2) ([1]; therapeutic (d3), Row 1 (0 d)): 0 log10(TCID50/ml)
- Swab Titration, group mean (Mean 2) ([1]; therapeutic (d3), Row 2 (3 d)): 0 log10(TCID50/ml)
- Swab Titration, group mean (Mean 2) ([1]; therapeutic (d3), Row 3 (7 d)): 0.7332 log10(TCID50/ml)
- Swab Titration, group mean (Mean 2) ([1]; therapeutic (d3), Row 4 (10 d)): 1.153 log10(TCID50/ml)
- Swab Titration, group mean (Mean 2) ([1]; therapeutic (d3), Row 5 (14 d)): 0 log10(TCID50/ml)
- Swab Titration, group mean (Mean 2) ([1]; therapeutic (d3), Row 6 (17 d)): 0 log10(TCID50/ml)
- Viral titers (throat swab), individual animals ([1]; therapeutic (d3), time 7 d): 0.699 log10(TCID50/ml) and 2 log10(TCID50/ml) and 1.699 log10(TCID50/ml)
- Viral titers (throat swab), individual animals ([1]; therapeutic (d3), time 10 d): 1.477 log10(TCID50/ml) (3×) and 2.477 log10(TCID50/ml)
- Swab Titration, group mean (Mean 2) ([1]; therapeutic (d7), Row 1 (0 d)): 0 log10(TCID50/ml)
- Swab Titration, group mean (Mean 2) ([1]; therapeutic (d7), Row 2 (3 d)): 0 log10(TCID50/ml)
- Swab Titration, group mean (Mean 2) ([1]; therapeutic (d7), Row 3 (7 d)): 2.207 log10(TCID50/ml)
- Swab Titration, group mean (Mean 2) ([1]; therapeutic (d7), Row 4 (10 d)): 0.9798 log10(TCID50/ml)
- Swab Titration, group mean (Mean 2) ([1]; therapeutic (d7), Row 5 (14 d)): 0 log10(TCID50/ml)
- Swab Titration, group mean (Mean 2) ([1]; therapeutic (d7), Row 6 (17 d)): 0 log10(TCID50/ml)
- Viral titers (throat swab), individual animals ([1]; therapeutic (d7), time 7 d): 3.477 log10(TCID50/ml) and 2.699 log10(TCID50/ml) (2×) and 2.176 log10(TCID50/ml) (2×)
- Viral titers (throat swab), individual animals ([1]; therapeutic (d7), time 10 d): 1.699 log10(TCID50/ml) and 1.477 log10(TCID50/ml) and 2.699 log10(TCID50/ml)
- Swab Titration, Mean Diff, untreated vs. treated ([1]; untreated vs. prophylactic, Row 1 (0 d)): 0 log10(TCID50/ml)
- Swab Titration, Mean Diff, untreated vs. treated ([1]; untreated vs. prophylactic, Row 2 (3 d)): 0 log10(TCID50/ml)
- Swab Titration, Mean Diff, untreated vs. treated ([1]; untreated vs. prophylactic, Row 3 (7 d)): 1.98 log10(TCID50/ml)
- Swab Titration, Mean Diff, untreated vs. treated ([1]; untreated vs. prophylactic, Row 4 (10 d)): 2.423 log10(TCID50/ml)
- Swab Titration, Mean Diff, untreated vs. treated ([1]; untreated vs. prophylactic, Row 5 (14 d)): 0 log10(TCID50/ml)
- Swab Titration, Mean Diff, untreated vs. treated ([1]; untreated vs. prophylactic, Row 6 (17 d)): 0.1302 log10(TCID50/ml)
- Swab Titration, Mean Diff, untreated vs. treated ([1]; untreated vs. therapeutic (d3), Row 1 (0 d)): 0 log10(TCID50/ml)
- Swab Titration, Mean Diff, untreated vs. treated ([1]; untreated vs. therapeutic (d3), Row 2 (3 d)): 0 log10(TCID50/ml)
- Swab Titration, Mean Diff, untreated vs. treated ([1]; untreated vs. therapeutic (d3), Row 3 (7 d)): 1.247 log10(TCID50/ml)
- Swab Titration, Mean Diff, untreated vs. treated ([1]; untreated vs. therapeutic (d3), Row 4 (10 d)): 1.72 log10(TCID50/ml)
- Swab Titration, Mean Diff, untreated vs. treated ([1]; untreated vs. therapeutic (d3), Row 5 (14 d)): 0 log10(TCID50/ml)
- Swab Titration, Mean Diff, untreated vs. treated ([1]; untreated vs. therapeutic (d3), Row 6 (17 d)): 0.2467 log10(TCID50/ml)
- Swab Titration, Mean Diff, untreated vs. treated ([1]; untreated vs. therapeutic (d7), Row 1 (0 d)): 0 log10(TCID50/ml)
- Swab Titration, Mean Diff, untreated vs. treated ([1]; untreated vs. therapeutic (d7), Row 2 (3 d)): 0 log10(TCID50/ml)
- Swab Titration, Mean Diff, untreated vs. treated ([1]; untreated vs. therapeutic (d7), Row 3 (7 d)): -0.2268 log10(TCID50/ml)
- Swab Titration, Mean Diff, untreated vs. treated ([1]; untreated vs. therapeutic (d7), Row 4 (10 d)): 1.893 log10(TCID50/ml)
- Swab Titration, Mean Diff, untreated vs. treated ([1]; untreated vs. therapeutic (d7), Row 5 (14 d)): 0 log10(TCID50/ml)
- Swab Titration, Mean Diff, untreated vs. treated ([1]; untreated vs. therapeutic (d7), Row 6 (17 d)): 0.2467 log10(TCID50/ml)
